Results taken from patent US6242440A, “Synergistic compositions comprising an oxathiazine and a benzothiophene-2-carboxamide-S,S-dioxide” (Janssen Pharmaceutica N.V., priority 1997, dated 2001).
Where two headings read alike, the source gives them in different places.

Tests used:
[1] = tested on: Sclerophoma; assay: wood stick test (Scots Pine); format: cell-based, Sclerophoma entoxylina
Method: (§1) Oven-dried wood sticks (50×12×2 mm) of Scots Pine (Pinus sylvestris) were dipped during 3 hours in a methanol solution comprising a compound of formula (I), a compound of formula (II), or a combination of a compound of formula (I) and a compound of formula (II), and allowed to dry overnight in a sterile laminar air flow. In each Petri dish one stick was placed on culture medium, PDA PS (Potato Dextrose Agar containing 60 mg penicillin and 200 mg streptomycin), previously seeded with inoculum. Two drops of fungal or spore suspension were pipetted on the upper surface of the stick The Petri dishes were incubated at 22° C. and 70% relative humidity. The test was evaluated after sufficient growth of the fungus on the control sticks. The following score system was used:
(§2) 0: sticks free of fungal growth
(§3) 1: traces of growth on the stick
(§4) 2: slight growth (5 to 25% of the surface covered)
(§5) 3 : moderate growth (25 to 50% of the surface covered)
(§6) 4: vigorous to maximum growth (more tha 50% covered)
(§7) To calculate synergism results were converted to the next artificial activities:
(§8) Yhe expected activities E were calculated by using the so-called formula of Colby: (Colby, S. R. Weeds 1967, 15: 20-22), [formula]
(§9) wherein X and Y express the relative activities obtained for each of the active ingredients. A synergistic effect can be acknowledged if the found activity exceeds calculated activity.
(§10) The compound of formula (I) used in the experiment was 3-benzo[b]-thien-2-yl)-5,6-dihydro-1,4,2-oxathiazine 4-oxide, i.e. compound (1). The compound of formula (II) used in the experiment was N-cyclohexyl-benzothiophene-2-carboxamide-S,S-dioxide, i.e. compound (2).

[2] = tested on: Aspergillus niger; assay: poison plate assay, mycelial growth and sporulation; format: cell-based
Method: (§11) The efficacy of the active ingredients against mycelial growth and sporulation of Aureobasidium pullulans, Aspergillus niger, Scierophoma entoxylina, Trichodenna viride, was determined in the poison plate assay. The required concentrations of the fungicide(s) were obtained by diluting the active ingredients (I), (II) or the combination of (I) and (II) in dimethyl sulfoxide (DMSO) at 800 times the final test concentration. The stock solutions in DMSO were pipetted into Petri-dishes. Malt extract agar (3%) was added aseptically and uniform distribution was obtained by shaking. Each plate was spot inoculated with a spore or mycelial suspension. After incubation at 22° C. and 70% relative humidity for a period long enough to allow complete growth of controls, diameters of colonies were measured. Relative activities were calculated by taking the absence of fungal growth (diameter 0 mm) as 100%. From the activity of the active ingredients alone, the expected activities E were calculated by using the so-called formula of Colby: (Colby, S. R. Weeds 1967, 15: 20-22), [formula]
as §9
(§12) Equal efficacy was observed whenever complete inhibition of fungal growth occurred by one of the active ingredients (I) or (II) alone. The compound of formula (I) used in the experiment was 3-benzo[b]-thien-2-yl)-5,6-dihydro-1,4,2-oxathiazine 4-oxide, i.e. compound (1). The compound of formula (II) used in the experiment was N-cyclohexyl-benzothiophene-2-carboxamide-S,S-dioxide, i.e. compound (2).

[3] = tested on: Trichoderma viride; assay: as above; format: cell-based
Method: as §11, §9, §12

[4] = tested on: Aureobasidium pullulans; assay: as above; format: cell-based
Method: as §11, §9, §12

[5] = tested on: Sclerophoma entoxylina; assay: as above; format: cell-based
Method: as §11, §9, §12

[6] = tested on: Aureobasidium; assay: wood stick test (Scots Pine); format: cell-based, Aureobasidium pullulans; settings: read-out: measured (relative) activity %
Method: as §1, §2, §3, §4, §5, §6, §7, §8, §9, §10

[7] = tested on: Aspergillus; assay: wood stick test (Scots Pine); format: cell-based, Aspergillus niger
Method: as §1, §2, §3, §4, §5, §6, §7, §8, §9, §10

## [O-][S+]1CCON=C1c1cc2ccccc2s1 (centres unmarked) [compound (1), 3-(benzo[b]thien-2-yl)-5,6-dihydro-1,4,2-oxathiazine, 4-oxide]
[1]; (1) 200 ppm
  % overgrown of the sticks: 100%
  stick test scores: 4 (vigorous to maximum growth (more tha 50% covered))
[1]; (1) 400 ppm
  % overgrown of the sticks: 50%
  stick test scores: 3 (moderate growth (25 to 50% of the surface covered))
[1]; Sclerophoma entoxylina, (1) 200 ppm, read-out: measured (relative) activity %
  activity at 200 ppm: 0%
[1]; Sclerophoma entoxylina, (1) 400 ppm, read-out: measured (relative) activity %
  activity at 400 ppm: 50%
[2]; Exp 1, 5 days, (1) 0.62 mg/l
  activity measured: 5%
  growth: 42 mm
[2]; Exp 1, 5 days, (1) 1.25 mg/l
  activity measured: 14%
  growth: 38 mm
[2]; Exp 1, 5 days, (1) 2.50 mg/l
  activity measured: 39%
  growth: 27 mm
[2]; Exp 1, 5 days, (1) 5.00 mg/l
  activity measured: 100%
  growth: 0 mm
[2]; Exp 2, 7 days, (1) 1.25 mg/l
  activity measured: 16%
  growth: 38 mm
[2]; Exp 2, 7 days, (1) 2.50 mg/l
  activity measured: 44%
  growth: 25 mm
[3]; Exp 1, 5 days, (1) 0.62 mg/l
  activity measured: 0%
  growth: 49 mm
[3]; Exp 1, 5 days, (1) 1.25 mg/l
  activity measured: 0%
  growth: 49 mm
[3]; Exp 1, 5 days, (1) 2.50 mg/l
  activity measured: 2%
  growth: 48 mm
[3]; Exp 1, 5 days, (1) 5.00 mg/l
  activity measured: 29%
  growth: 35 mm
[3]; Exp 2, 7 days, (1) 1.25 mg/l
  activity measured: 12%
  growth: 43 mm
[3]; Exp 2, 7 days, (1) 2.50 mg/l
  activity measured: 29%
  growth: 35 mm
[4]; Exp 1, 5 days, (1) 0.62 mg/l
  activity measured: 13%
  growth: 33 mm
[4]; Exp 1, 5 days, (1) 1.25 mg/l
  activity measured: 32%
  growth: 26 mm
[4]; Exp 1, 5 days, (1) 2.50 mg/l
  activity measured: 61%
  growth: 15 mm
[4]; Exp 1, 5 days, (1) 5.00 mg/l
  activity measured: 87%
  growth: 5 mm
[4]; Exp 2, 7 days, (1) 1.25 mg/l
  activity measured: 8%
  growth: 44 mm
[4]; Exp 2, 7 days, (1) 2.50 mg/l
  activity measured: 21%
  growth: 38 mm
[5]; Exp 1, 5 days, (1) 0.62 mg/l
  activity measured: 2%
  growth: 42 mm
[5]; Exp 1, 5 days, (1) 1.25 mg/l
  activity measured: 14%
  growth: 37 mm
[5]; Exp 1, 5 days, (1) 2.50 mg/l
  activity measured: 37%
  growth: 27 mm
[5]; Exp 1, 5 days, (1) 5.00 mg/l
  activity measured: 84%
  growth: 7 mm
[5]; Exp 2, 7 days, (1) 1.25 mg/l
  activity measured: 4%
  growth: 47 mm
[5]; Exp 2, 7 days, (1) 2.50 mg/l
  activity measured: 18%
  growth: 40 mm
[6]; (1) 200 ppm
  activity at 200 ppm: 0%
[6]; (1) 400 ppm
  activity at 400 ppm: 50%
[7]; (1) 200 ppm
  % overgrown of the sticks: 100%
  stick test scores: 4 (vigorous to maximum growth (more tha 50% covered))
[7]; (1) 400 ppm
  % overgrown of the sticks: 50%
  stick test scores: 3 (moderate growth (25 to 50% of the surface covered))
[7]; Aspergillus, (1) 400 ppm, read-out: measured (relative) activity %
  activity at 400 ppm: 50%

## O=C(NC1CCCCC1)C1=Cc2ccccc2S1(=O)=O [compound (2), N-cyclohexyl-benzothiophene-2-carboxamide-S,S-dioxide]
[1]; (2) 200 ppm
  % overgrown of the sticks: 100%
  stick test scores: 4 (vigorous to maximum growth (more tha 50% covered))
[1]; (2) 400 ppm
  % overgrown of the sticks: 100%
  stick test scores: 4 (vigorous to maximum growth (more tha 50% covered))
[1]; (2) 800 ppm
  % overgrown of the sticks: 25%
  stick test scores: 2 (slight growth (5 to 25% of the surface covered))
[1]; Sclerophoma entoxylina, (2) 200 ppm, read-out: measured (relative) activity %
  activity at 200 ppm: 0%
[1]; Sclerophoma entoxylina, (2) 400 ppm, read-out: measured (relative) activity %
  activity at 400 ppm: 0%
[1]; Sclerophoma entoxylina, (2) 800 ppm, read-out: measured (relative) activity %
  activity at 800 ppm: 75%
[2]; Exp 1, 5 days, (2) 2.5 mg/l
  activity measured: 0%
  growth: 44 mm
[2]; Exp 1, 5 days, (2) 5 mg/l
  activity measured: 5%
  growth: 42 mm
[2]; Exp 1, 5 days, (2) 10 mg/l
  activity measured: 23%
  growth: 34 mm
[2]; Exp 1, 5 days, (2) 20 mg/l
  activity measured: 70%
  growth: 13 mm
[2]; Exp 2, 7 days, (2) 2.5 mg/l
  activity measured: 2%
  growth: 44 mm
[2]; Exp 2, 7 days, (2) 5 mg/l
  activity measured: 2%
  growth: 44 mm
[2]; Exp 2, 7 days, (2) 10 mg/l
  activity measured: 9%
  growth: 41 mm
[2]; Exp 2, 7 days, (2) 20 mg/l
  activity measured: 36%
  growth: 29 mm
[3]; Exp 1, 5 days, (2) 2.5 mg/l
  activity measured: 0%
  growth: 49 mm
[3]; Exp 1, 5 days, (2) 5 mg/l
  activity measured: 0%
  growth: 49 mm
[3]; Exp 1, 5 days, (2) 10 mg/l
  activity measured: 0%
  growth: 49 mm
[3]; Exp 1, 5 days, (2) 20 mg/l
  activity measured: 14%
  growth: 42 mm
[3]; Exp 2, 7 days, (2) 2.5 mg/l
  activity measured: 0%
  growth: 49 mm
[3]; Exp 2, 7 days, (2) 5 mg/l
  activity measured: 0%
  growth: 49 mm
[3]; Exp 2, 7 days, (2) 10 mg/l
  activity measured: 8%
  growth: 45 mm
[3]; Exp 2, 7 days, (2) 20 mg/l
  activity measured: 24%
  growth: 37 mm
[4]; Exp 1, 5 days, (2) 2.5 mg/l
  activity measured: 8%
  growth: 35 mm
[4]; Exp 1, 5 days, (2) 5 mg/l
  activity measured: 16%
  growth: 32 mm
[4]; Exp 1, 5 days, (2) 10 mg/l
  activity measured: 37%
  growth: 24 mm
[4]; Exp 1, 5 days, (2) 20 mg/l
  activity measured: 53%
  growth: 18 mm
[4]; Exp 2, 7 days, (2) 2.5 mg/l
  activity measured: 2%
  growth: 47 mm
[4]; Exp 2, 7 days, (2) 5 mg/l
  activity measured: 6%
  growth: 45 mm
[4]; Exp 2, 7 days, (2) 10 mg/l
  activity measured: 8%
  growth: 44 mm
[4]; Exp 2, 7 days, (2) 20 mg/l
  activity measured: 23%
  growth: 37 mm
[5]; Exp 1, 5 days, (2) 2.5 mg/l
  activity measured: 7%
  growth: 40 mm
[5]; Exp 1, 5 days, (2) 5 mg/l
  activity measured: 16%
  growth: 36 mm
[5]; Exp 1, 5 days, (2) 10 mg/l
  activity measured: 19%
  growth: 35 mm
[5]; Exp 1, 5 days, (2) 20 mg/l
  activity measured: 40%
  growth: 26 mm
[5]; Exp 2, 7 days, (2) 2.5 mg/l
  activity measured: 2%
  growth: 48 mm
[5]; Exp 2, 7 days, (2) 5 mg/l
  activity measured: 4%
  growth: 47 mm
[5]; Exp 2, 7 days, (2) 10 mg/l
  activity measured: 16%
  growth: 41 mm
[5]; Exp 2, 7 days, (2) 20 mg/l
  activity measured: 29%
  growth: 35 mm
[6]; (2) 200 ppm
  activity at 200 ppm: 0%
[6]; (2) 400 ppm
  activity at 400 ppm: 75%
[6]; (2) 800 ppm
  activity at 800 ppm: 95%
[7]; (2) 200 ppm
  % overgrown of the sticks: 100%
  stick test scores: 4 (vigorous to maximum growth (more tha 50% covered))
[7]; (2) 400 ppm
  % overgrown of the sticks: 100%
  stick test scores: 4 (vigorous to maximum growth (more tha 50% covered))
[7]; (2) 800 ppm
  % overgrown of the sticks: 100%
  stick test scores: 4 (vigorous to maximum growth (more tha 50% covered))
[7]; Aspergillus, (2) 200 ppm, read-out: measured (relative) activity %
  activity at 200 ppm: 0%
[7]; Aspergillus, (2) 400 ppm, read-out: measured (relative) activity %
  activity at 400 ppm: 0%
[7]; Aspergillus, (2) 800 ppm, read-out: measured (relative) activity %
  activity at 800 ppm: 0%
